This test relates to AMPK. As to the kind of experiment: AMPK activation assay (enzyme-linked immunosorbent assay). It is filed as cell-based. The method in brief: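 Kit-based immunoassay; compounds screened as activators; standard reagents and protocol.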

The structures appear in SMILES notation.

In the case of `N#Cc1ccc(CN2CC[C@@H](NC(=O)c3ccc(C(=O)N4CCN(Cc5ccc(F)cc5)CC4)cn3)C2)cc1` [Compound 118, (R)-N-(1-(4-cyanobenzyl)pyrrolidin-3-yl)-5-(4-(4-fluorobenzyl)piperazine-1-carbonyl)picolinamide], the EC50 (in general, the concentration needed to bring the measured effect to its halfway point) is less than 500 nM. The same measure for `O=C(Nc1ccc(Oc2ccc(F)cc2)nc1)c1ccc(C(=O)N2CCC(C(=O)c3ccc(F)cc3F)CC2)cn1` [Compound 342, 5-(4-(2,4-difluorobenzoyl)piperidine-1-carbonyl)-N-(6-(4-fluorophenoxy)pyridin-3-yl)picolinamide]: less than 500 nM; for `N#Cc1ccc(CN2CCC(NC(=O)c3ccc(C(=O)N4CCN(Cc5cc(F)cc(F)c5)CC4)cn3)CC2)cc1` [Compound 140, N-(1-(4-cyanobenzyl)piperidin-4-yl)-5-(4-(3,5-difluorobenzyl)piperazine-1-carbonyl)picolinamide]: less than 500 nM. For the compound `O=C(N[C@@H]1CCN(Cc2ccc(Cl)cc2)C[C@@H]1F)c1ccc(C(=O)N2CCN(Cc3ccc(F)cc3)CC2)cn1` (relative stereo) [Compound 127, N-(cis-1-(4-chlorobenzyl)-3-fluoropiperidin-4-yl)-5-(4-(4-fluorobenzyl)piperazine-1-carbonyl)picolinamide], the EC50 is less than 500 nM. To `N#Cc1ccc(CN2CCC(NC(=O)c3ccc(C(=O)N4CCN(c5ccc(C(=O)C6CC6)cc5)CC4)cn3)CC2)cc1` [Compound 258, N-(1-(4-cyanobenzyl)piperidin-4-yl)-5-(4-(4-(cyclopropanecarbonyl)phenyl)piperazine-1-carbonyl)picolinamide] belongs less than 500 nM. The same measure for `COc1ccc(-c2ccc(Nc3ccc(C(=O)NC4CCN(Cc5ccccc5)CC4)nc3)cc2)cc1` [Compound 120, N-(1-benzylpiperidin-4-yl)-5-(4′-methoxybiphenyl-4-ylamino)picolinamide]: greater than 10000 nM; for `N#Cc1ccc(CN2CCC(NC(=O)c3ccc(C(=O)N4CCC(Oc5ccc(S(=O)(=O)C(F)(F)F)cc5)CC4)nc3)CC2)cc1` [Compound 450, N-(1-(4-cyanobenzyl)piperidin-4-yl)-6-(4-(4-(trifluoromethylsulfonyl)phenoxy)piperidine-1-carbonyl)nicotinamide]: less than 500 nM.

The compound `N#Cc1ccc(CN2CCC(NC(=O)c3ccc(C(=O)N4CCC(C(=O)c5ccc(F)cc5)CC4)cn3)CC2)cc1` [Compound 136, N-(1-(4-cyanobenzyl)piperidin-4-yl)-5-(4-(4-fluorobenzoyl)piperidine-1-carbonyl)picolinamide] displayed an EC50 of less than 500 nM.

As to `CS(=O)(=O)c1ccc(C(=O)C2CCN(C(=O)c3ccc(C(=O)NC4CCN(Cc5ccc(C#N)cc5)CC4)cn3)CC2)cc1` [Compound 221, N-(1-(4-cyanobenzyl)piperidin-4-yl)-6-(4-(4-(methylsulfonyl)benzoyl)piperidine-1-carbonyl)nicotinamide], the EC50 was in the range of 1000 to 5000 nM. The same measure for `N#Cc1ccc(CN2CCC(NC(=O)c3ccc(C(=O)N4CCC(C(O)c5ccc(F)cc5)CC4)cn3)CC2)cc1` (stereo not drawn) [Compound 142, N-(1-(4-cyanobenzyl)piperidin-4-yl)-5-(4-((4-fluorophenyl)(hydroxy)methyl)piperidine-1-carbonyl)picolinamide]: less than 500 nM. The same measure for `CC(=O)Nc1ccc(OC2CCN(C(=O)c3ccc(C(=O)NC4CCN(Cc5cccc(OC(F)(F)F)c5)CC4)cn3)CC2)cc1` [Compound 428, 6-(4-(4-acetamidophenoxy)piperidine-1-carbonyl)-N-(1-(3-(trifluoromethoxy)benzyl)piperidin-4-yl)nicotinamide]: 500 to 1000 nM; for `N#Cc1ccc(OC2CCN(C(=O)c3ccc(C(=O)NC4CCN(Cc5ccc(F)cc5)CC4)nc3)CC2)cc1` [Compound 200, 5-(4-(4-cyanophenoxy)piperidine-1-carbonyl)-N-(1-(4-fluorobenzyl)piperidin-4-yl)picolinamide]: less than 500 nM; for `CC(C)N1CCN(C(=O)c2ccc(C(=O)NC3CCN(Cc4ccc(C#N)cc4)CC3)nc2)CC1` [Compound 84, N-(1-(4-cyanobenzyl)piperidin-4-yl)-5-(4-isopropylpiperazine-1-carbonyl)picolinamide]: 1000 to 5000 nM. In turn, `O=C(NC1CCN(c2ccc(F)cc2)CC1)c1ccc(C(=O)N2CCN(Cc3ccc(F)cc3)CC2)nc1` [Compound 404, 6-(4-(4-fluorobenzyl)piperazine-1-carbonyl)-N-(1-(4-fluorophenyl)piperidin-4-yl)nicotinamide] returned a half-maximal effective concentration (EC50) of 1000 to 5000 nM. To `N#Cc1ccc(CN2CCC(NC(=O)c3ncc(C(=O)N4CCN(Cc5ccc(F)cc5)CC4)cc3C#CCNC(=O)COCCOCCOCCOCCNC(=O)CCCC[C@@H]3SC[C@@H]4NC(=O)N[C@@H]43)CC2)cc1` [Compound 159, N-(1-(4-cyanobenzyl)piperidin-4-yl)-3-(5,20-dioxo-24-((3aS,4S,6aR)-2-oxohexahydro-1H-thieno[3,4-d]imidazol-4-yl)-7,10,13,16-tetraoxa-4,19-diazatetracos-1-ynyl)-5-(4-(4-fluorobenzyl)piperazine-1-carbonyl)picolinamide] belongs 1000 to 5000 nM; to `CS(=O)(=O)c1ccc(OC2CCN(C(=O)c3ccc(C(=O)NC4CCN(Cc5cc(F)cc(F)c5)CC4)cn3)CC2)cc1` [Compound 236, N-(1-(3,5-difluorobenzyl)piperidin-4-yl)-6-(4-(4-(methylsulfonyl)phenoxy)piperidine-1-carbonyl)nicotinamide], less than 500 nM; to `O=C(NC1CCN(Cc2ccc(OC(F)(F)F)cc2)CC1)c1ccc(C(=O)N2CCC(Oc3ccc(S(F)(F)(F)(F)F)cc3)CC2)nc1` [Compound 494, 6-(4-(4-(pentafluorosulfanyl)phenoxy)piperidine-1-carbonyl)-N-(1-(4-(trifluoromethoxy)benzyl)piperidin-4-yl)nicotinamide], less than 500 nM. For `O=C(NC1CCN(Cc2ccc(Cl)cc2)CC1)c1ccc(C(=O)N2CCN(Cc3ccc(F)cc3)CC2)cn1` [Compound 52], the EC50 is less than 500 nM. The same measure for `COc1ccc(O[C@H]2CC[C@@H](NC(=O)c3ccc(C(=O)N4CCC(C(=O)c5ccc(OC)cc5)CC4)cn3)CC2)cc1` [Compound 184, 5-(4-(4-methoxybenzoyl)piperidine-1-carbonyl)-N-((cis)-4-(4-methoxyphenoxy)cyclohexyl)picolinamide]: less than 500 nM; for `Cc1ccc(CC2CCN(C(=O)c3ccc(C(=O)NC4CCN(Cc5ccc(C#N)cc5)CC4)nc3)CC2)cc1` [Compound 145, N-(1-(4-cyanobenzyl)piperidin-4-yl)-5-(4-(4-methylbenzyl)piperidine-1-carbonyl)picolinamide]: less than 500 nM; for `COc1ccc(CN2CCC(NC(=O)c3ccc(C(=O)N4CCN(Cc5ccc(F)cc5)CC4)cn3)CC2)cc1` [Compound 117, 5-(4-(4-fluorobenzyl)piperazine-1-carbonyl)-N-(1-(4-methoxybenzyl)piperidin-4-yl)picolinamide]: less than 500 nM. The same measure for `O=C(Nc1ccc(Oc2ccc(F)cc2)nc1)c1cnc(C(=O)N2CCC(C(=O)c3ccc(F)cc3F)CC2)cn1` [Compound 206, 5-(4-(2,4-difluorobenzoyl)piperidine-1-carbonyl)-N-(6-(4-fluorophenoxy)pyridin-3-yl)pyrazine-2-carboxamide]: less than 500 nM; for `COc1ccc(C(=O)C2CCN(C(=O)c3ccc(C(=O)NC4CCN(Cc5ccc(NC(=O)CCOCCOCCOCCNC(=O)CCCC[C@@H]6SC[C@@H]7NC(=O)N[C@@H]76)cc5)CC4)nc3)CC2)cc1` [Compound 403, 5-(4-(4-methoxybenzoyl)piperidine-1-carbonyl)-N-(1-(4-(14-oxo-18-((3aS,4S,6aR)-2-oxohexahydro-1H-thieno[3,4-d]imidazol-4-yl)-4,7,10-trioxa-13-azaoctadecanamido)benzyl)piperidin-4-yl)picolinamide]: greater than 10000 nM.

`N#Cc1ccc(CNC(=O)c2cccc(-c3ccc(C(=O)N4CCN(Cc5ccc(F)cc5)CC4)cn3)c2)cc1` [Compound 42, (6-(3-(4-cyanobenzylcarbamoyl)phenyl)pyridin-3yl)(4-(4-fluorobenzyl)piperazin-1-yl)methanone] came in with an EC50 of 1000 to 5000 nM.

`N#Cc1ccc(CN2CCC(NC(=O)c3cnc(C(=O)N4CCC(C(=O)c5ccc(N6CCCC6)cc5)CC4)cn3)CC2)cc1` [Compound 219, N-(1-(4-cyanobenzyl)piperidin-4-yl)-5-(4-(4-(pyrrolidin-1-yl)benzoyl)piperidine-1-carbonyl)pyrazine-2-carboxamide] showed an EC50 of less than 500 nM.

`O=C(NC1CCN(C(=O)C2CCCCC2)CC1)c1ccc(C(=O)N2CCN(Cc3ccc(F)cc3)CC2)cn1` [Compound 7, N-(1-(cyclohexanecarbonyl)piperidin-4-yl)-5-(4-(4-fluorobenzyl)piperazine-1-carbonyl)picolinamide] had an EC50 of less than 500 nM. To `CS(=O)(=O)c1ccc(OC2CCN(C(=O)c3ccc(C(=O)Nc4ccc(S(=O)(=O)c5ccc(F)cc5)nc4)nc3)CC2)cc1` [Compound 261, N-(6-(4-fluorophenylsulfonyl)pyridin-3-yl)-5-(4-(4-(methylsulfonyl)phenoxy)piperidine-1-carbonyl)picolinamide] belongs less than 500 nM.

`N#Cc1ccc(CN2CCC(NC(=O)c3ccc(C(=O)Nc4cccc(Cc5ccccc5)c4)cn3)CC2)cc1` [Compound 5, N^2-(1-(4-cyanobenzyl)piperidin-4-yl)-N^5-(3-benzylphenyl)pyridine-2,5-dicarboxamide] had an EC50 of 500 to 1000 nM. To `N#Cc1ccc(Cn2cc(NC(=O)c3ccc(C(=O)N4CCN(Cc5ccc(F)cc5)CC4)cn3)cn2)cc1` [Compound 23, N-(1-(4-cyanobenzyl)-1H-pyrazol-4-yl)-5-(4-(4-fluorobenzyl)piperazine-1-carbonyl)picolinamide] belongs less than 500 nM; to `COc1ccc(C(=O)C2CCN(C(=O)c3ccc(C(=O)Nc4ccc(Oc5ccc(C#N)cc5)nc4)cn3)CC2)cc1` [Compound 460, N-(6-(4-cyanophenoxy)pyridin-3-yl)-6-(4-(4-methoxybenzoyl)piperidine-1-carbonyl)nicotinamide], less than 500 nM.

Values taken from patent US20150087673A1, “METHODS FOR USING AND BIOMARKERS FOR AMPK-ACTIVATING COMPOUNDS” (RIGEL PHARMACEUTICALS, INC., priority 2013, published 2015).
